Measurements as given in publication PMC11412900 (Molecular Psychiatry, 2024).
Read-outs that look alike come from different tables or passages of the source.

Columns and labels:
SERT [1] = biological target: T1, SERT (Homo sapiens, UniProt P31645); assay: Radioligand binding, [3H]imipramine displacement
T1 construct: YFP (yellow-fluorescent protein); expressed in transfected cells
Method: Binding assays were performed as described previously. Briefly, membrane preparations expressing h5-HT1AR, h5-HT2AR or hSERT (see Supplementary Material) were incubated with radiolabeled selective ligands 0.4 nM [^3H]8-OH-DPAT, 1 nM [^3H]ketanserin or 3 nM [^3H]imipramine, respectively. The drugs were diluted in the corresponding binding buffer and tested at increasing concentrations in duplicate. Binding reactions were performed in tubes containing the drug dilutions; 25 μl of the corresponding radioligand; and the membranes (10 μg and 5 μg/500 μL for 5-HT1AR and 5-HT2AR, respectively, and 15 μg/100 μL for hSERT), all diluted in binding buffer. […] Incubation was performed for 1 h at 27 °C for 5-HT1A/2AR and 22 °C for hSERT, according to the manufacturer’s protocol (Perkin Elmer, Inc., Waltham, MA, USA) and previous studies - saturation and kinetic experiments, respectively. The binding reactions were stopped by rapid filtration through GF/B glass microfiber filters pre-soaked with 0.5% polyethyleneimine and washing with ice-cold wash buffer. The filters were placed into vials and scintillation cocktail was added. The trapped radioactivity was quantified. Specific binding was defined as the difference between total binding (binding buffer alone) and non-specific binding. Experiments were conducted per duplicate for at least three independent experiments.
(§1) The generation and maintenance of HEK293 cells stably expressing the yellow-fluorescent protein (YFP)-tagged version of the human isoform of SERT (hSERT) (Perkin Elmer, Waltham, MA, USA) was carried out as described previously. For uptake inhibition and batch release assays, cells were seeded onto previously poly-D-lysine (PDL)-coated 96-well plates at a density of 0.036 million cells per well [5]. For superfusion release assays, cells were seeded onto a previously coated with PDL 6 channel µ-slide at a density of 0.08 million cells per channel. Prior to patching, cells were grown in DMEM containing 10% FBS, Zeocin (150 µg/mL) and Blasticidin (6 µg/mL) for positive selection of transporter-expressing clones. The cells were seeded at a low density on PDL-coated 35 mm plates 24-48 hr prior to patching. For membrane preparation, HEK293 cells expressing hSERT transporters were harvested from 80–90% confluent dishes as described elsewhere. Protein concentration was determined using the Bio-RadProtein Reagent (Bio Rad Laboratories, Hercules, CA, USA). Membrane preparations were stored at −80°C until use. Generation and maintenance of CHO-K1 cells expressing the human isoform of 5-HT2AR (h5-HT2AR) was carried out as described in the manufacturer’s protocol (Perkin Elmer, Waltham, MA, USA). Routine DAPI-Staining assays tested negative in mycoplasma contamination.

SERT [2] = biological target: T1, SERT; assay: [3H]5-HT uptake inhibition in HEK293 cells expressing hSERT; format: cell-based
Method: See the Supplementary Material for cell culture procedures. The medium was removed from each well and replaced with 200 μL/well of Krebs-HEPES-Buffer (KHB). The cells were pre-incubated for 5 min with different concentrations of drug in KHB at 50 μL/well. […] The incubation solution was aspirated and the cells were washed with ice-cold KHB and lysed with 1% sodium dodecyl sulfate (SDS). The lysate was collected into vials and scintillation liquid was added. The radioactivity was quantified using a beta-scintillation counter (Perkin Elmer, Waltham, MA, USA). Non-specific uptake was determined in the presence of 30 μM paroxetine. Data were expressed as percentage of control uptake (absence of tryptamine).
as §1

SERT [3] = biological target: T1, SERT; assay: Whole-cell patch clamp, transporter-mediated currents in HEK293 cells; format: cell-based; conditions: for EC50: clamped at −60 mV, N = 5, read-out: SERT-mediated inward current EC50; for SERT-mediated inward current Emax: normalized to current elicited by 5-HT 10 µM; for SERT substrate type: whole-cell patch clamp
Text: Whole-cell patch clamping was used to measure the transporter-mediated currents and performed as previously described. […] Cells were continuously superfused by a DAD-12 superfusion system and an 8-tube perfusion manifold (ALA Scientific Instruments in Farmingdale, NY, USA), which allowed to apply a physiological external solution. The pipette solution mimics the internal ionic composition of a cell. […] Passive holding currents were subtracted, and the traces were filtered using a 50-Hz digital Gaussian low-pass filter for analysis purposes. Five independent experiments were performed.

SERT [4] = biological target: T1, SERT; assay: Superfusion release assay of [3H]5-HT; format: cell-based
Method: Concentration-response release assays were performed using a superfusion assay. […] Afterwards, cells were manually and gently washed once with KHB, and superfused with KHB at a rate of 0.5 mL/min for 10 min at room temperature (RT), to establish a stable basal release. Three 2 min-fractions of basal release were collected in 10 mL counting vials before exposing cells to various concentrations of 5-MeO-pyr-T (five fractions). Subsequently, the cells were superfused with 1% SDS for three final fractions to determine total radioactivity present at cells at the end of the experiment. 2 mL of scintillation cocktail was added to each vial, radioactivity was measured and expressed as percentage of released radioactivity in relation to the total radioactivity present at the beginning of that fraction. Experiments were performed per triplicate for five independent experiments.

[5] = 3 nM [3H]imipramine, N ≥ 3, read-out: SERT Ki ± SD
[6] = read-out: 5-HT uptake inhibition IC50 ± SD, HEK293 hSERT, N ≥ 3

T1 sequence (P31645 whole entry): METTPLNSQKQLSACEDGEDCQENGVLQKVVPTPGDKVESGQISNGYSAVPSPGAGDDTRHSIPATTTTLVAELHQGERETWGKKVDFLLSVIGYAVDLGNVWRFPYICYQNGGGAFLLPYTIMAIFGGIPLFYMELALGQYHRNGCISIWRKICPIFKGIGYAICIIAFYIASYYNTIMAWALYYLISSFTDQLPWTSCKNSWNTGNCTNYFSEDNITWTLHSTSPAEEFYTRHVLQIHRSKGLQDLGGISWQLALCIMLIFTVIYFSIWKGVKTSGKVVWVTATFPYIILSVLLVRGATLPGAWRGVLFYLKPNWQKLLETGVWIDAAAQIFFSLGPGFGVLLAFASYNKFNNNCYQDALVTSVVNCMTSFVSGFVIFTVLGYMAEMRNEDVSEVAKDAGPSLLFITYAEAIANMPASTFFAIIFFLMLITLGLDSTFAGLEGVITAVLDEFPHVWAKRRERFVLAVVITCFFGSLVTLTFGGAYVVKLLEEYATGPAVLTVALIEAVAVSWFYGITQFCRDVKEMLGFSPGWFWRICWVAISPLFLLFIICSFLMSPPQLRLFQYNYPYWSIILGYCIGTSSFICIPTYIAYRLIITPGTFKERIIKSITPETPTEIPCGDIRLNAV

## C=CCN(CC=C)CCc1c[nH]c2ccc(OC)cc12 [5-MeO-DALT]
SERT [1]; [5]
  Ki: 1.19 ± 0.096 µM
SERT [2]; [6]
  IC50: 22.3 µM

## CCN(CC)CCc1c[nH]c2ccc(OC)cc12 [5-MeO-DET]
SERT [1]; [5]
  Ki: 10.4 µM
SERT [2]; [6]
  IC50: 60 µM
SERT [3]
  EC50: 3.5 µM
  SERT-mediated inward current Emax: 0.26
  SERT substrate type: partial SERT substrates

## COc1ccc2[nH]cc(CCN(C(C)C)C(C)C)c2c1 [5-MeO-DIPT, 5-methoxy-N,N-diisopropyltryptamine]
SERT [1]
  Ki: 1.62 ± 0.475 µM
SERT [2]
  IC50: 24.2 µM

## CCN(CCc1c[nH]c2ccc(OC)cc12)C(C)C [5-MeO-EIPT]
SERT [1]; [5]
  Ki: 1.78 ± 0.083 µM
SERT [2]; [6]
  IC50: 22.2 µM

## CCN(C)CCc1c[nH]c2ccc(OC)cc12 [5-MeO-MET]
SERT [1]; [5]
  Ki: 7.71 ± 3.38 µM
SERT [2]; [6]
  IC50: 30.1 µM
SERT [3]
  EC50: 13 µM
  SERT-mediated inward current Emax: 0.46
  SERT substrate type: partial SERT substrates

## COc1ccc2[nH]cc(CCN(C)C(C)C)c2c1 [5-MeO-MIPT]
SERT [1]; [5]
  Ki: 2.87 ± 0.928 µM
SERT [2]; [6]
  IC50: 29.8 µM

## COc1ccc2[nH]cc(CCN3CCCC3)c2c1 [5-MeO-pyr-T]
SERT [1]; [5]
  Ki: 3.01 ± 0.354 µM
SERT [2]; [6]
  IC50: 2.77 ± 1.43 µM
SERT [3]
  EC50: 0.09 µM
  SERT-mediated inward current Emax: 0.49
  SERT substrate type: partial SERT substrates
SERT [4]; peak of efflux vs positive control pCA
  5-HT releaser type: 5-HT partial releaser
SERT [4]; read-out: 5-HT release EC50, superfusion, N = 5
  EC50: 5.7 ± 1.59 µM
